Series [1] in a line: clinical study of skin brightening efficacy and skin redness (chromameter readings). Type of series: in vivo, human. Particulars: emulsion 0.3% by weight. The protocol: The skin brightening efficacy of p-HCA in ethoxydyglycol versus kojic acid also was tested in a clinical study. In this study, an emulsion containing 0.3%, by weight, p-HCA or kojic acid was used on twenty, mostly female, subjects between the ages of 30 to 50 years. The test composition was applied to the abdomen twice daily (a.m. and p.m.). The test was conducted for eight weeks, and chromameter readings were taken at baseline, and after 2, 4, 6, and 8 weeks.

The nature of series [2]: skin penetration, Franz diffusion cells. Type of series: in vitro ADME, human. The protocol:
In another experiment, a 10% solution of p-HCA in ethoxydiglycol first was prepared. This solution was added to a skin care emulsion in a sufficient amount to provide either 0.3% or 0.1%, by weight, of p-HCA in the final composition. As a comparative example, 0.3%, by weight, of solid p-HCA was added to the same skin care emulsion. The skin care emulsion to which solid p-HCA or the p-HCA solution was added had the following formula (w/w %): • 85.35 water • 0.2 methylparaben • 0.35 xanthan gum • 5.0 butylene glycol • 4.0 sesame oil • 2.5 glyceryl stearate
The skin care emulsions containing p-HCA were applied to cadaver skin. Skin penetration of p-HCA was studied using Franz diffusion cells, n=5 (Permegear, Bethlehem, Pa.). The receptor contained an isotonic phosphate buffer with 30% ethanol, and was stirred continuously at 600 rpm. Samples of dermatomed human cadaver skin (NDRA, Philadelphia) were placed on the cells and prehydrated for 1 hour prior to the experiment. One milliliter of each formulation was added to the donor compartment of each cell, which was covered tightly with PARAFILM®. Samples (300 μl) were withdrawn from the receptor compartment every hour over 8 hours, and replaced with 300 μl of fresh receptor solution. After 8 hours, the skin was removed and cut into small pieces. The skin pieces were homogenized using a Kinematica POLYTRON® homogenizer and centrifuged. The supernatant was filtered through 0.22μ filters, and the p-HCA content was quantified.
All samples were analyzed by HPLC on a Hypersil ODS C18 column using water, methanol, glacial acetic acid (55:45:1) as the mobile phase at a flow rate of 1 ml/min and detection at 270 nm. Lag time and flux were obtained from permeation profiles and skin drug content also was recorded.
The following formula was tested for skin penetration: • Water 28.1% (by wt); • Carbopol 981 (2%) 17.0%; • Ethanol SDA 40b-190 53.0%; • Glycerin 1.0%; • Triethanolamine 0.4%; • p-Hydroxycinnamic acid 0.5%.
The method used to determine skin permeability was the Franz diffusion method disclosed above. […] In particular, 3.9 mcg/ml of p-HCA was found in the receptor compartment of the skin (i.e., permeated through the skin) as opposed to 16.3 mcg/ml p-HCA found within the skin.

Series [3] is described as follows: solubility of p-HCA in solvents / hydroxy-containing compounds (HPLC). Type of series: physicochemical. The protocol:
Various solvents were tested for an ability to dissolve p-HCA and provide a suitable composition for topical application to efficaciously treat hyperpigmentation. p-HCA was added to various solvents, then sonicated for two hours at 35° C. until no further HCA was dissolved. The samples were cooled to room temperature (25° C.) and allowed to stabilize for 15 hours. The undissolved p-HCA was allowed to settle, the supernatant liquid was filtered, and diluted with the HPLC mobile phase for assay. All samples were analyzed by HPLC on a Hypersil ODS C18 column using water, methanol, glacial acetic acid (55:45:1) as the mobile phase. The flow rate was 1 ml/min and the wavelength for detection was 270 nm. […] p-Hydroxycinnamic acid was added to the hydroxy-containing compound and sonicated until no further p-HCA dissolved after two hours of sonication at 35° C. The test sample was cooled to room temperature, then stabilized for 15 hours. After the p-HCA was allowed to settle, the supernatant was filtered through a 0.2 micron syringe filter. Approximately 0.08 g of this filtered material was weighed into a 25 ml volumetric flask and diluted to volume with HPLC mobile phase. Two standards were analyzed by HPLC and compared to the two samples. The HPLC assay was identical to the HPLC assay discussed above.

Another series has as its system skin enzymes. Nature of the series: metabolism of p-HCA in homogenized human skin. Type of series: in vitro ADME. Particulars: human skin homogenate in PBS-ethanol, 37° C., eight hours of incubation. The protocol:
First, to confirm in vivo activity of p-HCA, the metabolism of p-HCA in the skin was determined. In this test, human skin was homogenized in a PBS (phosphate-buffered saline)-ethanol solution, followed by dissolution of p-HCA. The solution was incubated at 37° C. for 8 hours. Samples were taken after 0, 4, and 8 hours, and were centrifuged. The supernatant was filtered and analyzed by HPLC. […] The amount of p-HCA that is metabolized was considered insignificant with respect to an efficacious treatment of hyperpigmentation.

Where [4] appears, read: hydroethanolic Carbopol gel formula with 0.5% p-hydroxycinnamic acid.
Setting [5] is: in presence of ethoxydiglycol vs powder form.

Results on 2 molecules are retold here after patent publication US20080214669A1, “Composition and Method For Treating Hyperpigmented Skin” (LIPO CHEMICALS INC., priority 2005, published 2008).

Molecules are shown by their SMILES.

On to `O=c1cc(CO)occ1O` [kojic acid], for which the skin redness result in series [1] (throughout the eight-week clinical trial) was “did not reduce redness”; in series [1] (weeks 4 and 8), “induced redness”.

In the case of `O=C(O)C=Cc1ccc(O)cc1` [p-HCA, p-hydroxycinnamic acid], the “amount deposited in the skin relative to amount transmitted through the skin” value in series [2] (setting [4]) is recorded as “four times greater”. For the same molecule, the “p-HCA found in the receptor compartment (permeated through the skin)” value in series [2] (setting [4]) was 3.9 µg/mL. In addition, the “elevation of percent p-HCA that permeates cadaver skin” value in series [2] (setting [5]) is listed as 43%. Besides, the “elevation of percentage of p-HCA that remained within the skin” value in series [2] (setting [5]) is reported as “about 50%”. Moreover, the solubility in series [3] (30% hydroethanolic solution) worked out at 0.75 wt %; in series [3] (Ethanol), 14.8 wt %; in series [3] (PEG-8), 5.4 wt %; in series [3] (butylene glycol) it was 2.25 wt %; in series [3] (glycereth-26), 7 wt %; in series [3] (pentylene glycol) it was 1.75 wt %. In series [3] (silicone fluid DC 193), this molecule had a solubility of 4.7 wt %. For the same molecule, the p-HCA metabolized in the series with skin enzymes is 3.6%.
